{"source": "patent US9340590B2", "about": "(priority 2011, dated 2016)", "assay_in_all_cases": "cell-based", "key": {"[1]": {"biological_target": "hNav1.3 (Homo sapiens, UniProt Q9NY46)", "conditions": "IonWorks Quattro, read-out: IWQ Use Nav1.3"}, "[2]": {"biological_target": "hNav1.7 (Homo sapiens, UniProt Q15858)", "sequence (Q15858 whole entry, looked up)": "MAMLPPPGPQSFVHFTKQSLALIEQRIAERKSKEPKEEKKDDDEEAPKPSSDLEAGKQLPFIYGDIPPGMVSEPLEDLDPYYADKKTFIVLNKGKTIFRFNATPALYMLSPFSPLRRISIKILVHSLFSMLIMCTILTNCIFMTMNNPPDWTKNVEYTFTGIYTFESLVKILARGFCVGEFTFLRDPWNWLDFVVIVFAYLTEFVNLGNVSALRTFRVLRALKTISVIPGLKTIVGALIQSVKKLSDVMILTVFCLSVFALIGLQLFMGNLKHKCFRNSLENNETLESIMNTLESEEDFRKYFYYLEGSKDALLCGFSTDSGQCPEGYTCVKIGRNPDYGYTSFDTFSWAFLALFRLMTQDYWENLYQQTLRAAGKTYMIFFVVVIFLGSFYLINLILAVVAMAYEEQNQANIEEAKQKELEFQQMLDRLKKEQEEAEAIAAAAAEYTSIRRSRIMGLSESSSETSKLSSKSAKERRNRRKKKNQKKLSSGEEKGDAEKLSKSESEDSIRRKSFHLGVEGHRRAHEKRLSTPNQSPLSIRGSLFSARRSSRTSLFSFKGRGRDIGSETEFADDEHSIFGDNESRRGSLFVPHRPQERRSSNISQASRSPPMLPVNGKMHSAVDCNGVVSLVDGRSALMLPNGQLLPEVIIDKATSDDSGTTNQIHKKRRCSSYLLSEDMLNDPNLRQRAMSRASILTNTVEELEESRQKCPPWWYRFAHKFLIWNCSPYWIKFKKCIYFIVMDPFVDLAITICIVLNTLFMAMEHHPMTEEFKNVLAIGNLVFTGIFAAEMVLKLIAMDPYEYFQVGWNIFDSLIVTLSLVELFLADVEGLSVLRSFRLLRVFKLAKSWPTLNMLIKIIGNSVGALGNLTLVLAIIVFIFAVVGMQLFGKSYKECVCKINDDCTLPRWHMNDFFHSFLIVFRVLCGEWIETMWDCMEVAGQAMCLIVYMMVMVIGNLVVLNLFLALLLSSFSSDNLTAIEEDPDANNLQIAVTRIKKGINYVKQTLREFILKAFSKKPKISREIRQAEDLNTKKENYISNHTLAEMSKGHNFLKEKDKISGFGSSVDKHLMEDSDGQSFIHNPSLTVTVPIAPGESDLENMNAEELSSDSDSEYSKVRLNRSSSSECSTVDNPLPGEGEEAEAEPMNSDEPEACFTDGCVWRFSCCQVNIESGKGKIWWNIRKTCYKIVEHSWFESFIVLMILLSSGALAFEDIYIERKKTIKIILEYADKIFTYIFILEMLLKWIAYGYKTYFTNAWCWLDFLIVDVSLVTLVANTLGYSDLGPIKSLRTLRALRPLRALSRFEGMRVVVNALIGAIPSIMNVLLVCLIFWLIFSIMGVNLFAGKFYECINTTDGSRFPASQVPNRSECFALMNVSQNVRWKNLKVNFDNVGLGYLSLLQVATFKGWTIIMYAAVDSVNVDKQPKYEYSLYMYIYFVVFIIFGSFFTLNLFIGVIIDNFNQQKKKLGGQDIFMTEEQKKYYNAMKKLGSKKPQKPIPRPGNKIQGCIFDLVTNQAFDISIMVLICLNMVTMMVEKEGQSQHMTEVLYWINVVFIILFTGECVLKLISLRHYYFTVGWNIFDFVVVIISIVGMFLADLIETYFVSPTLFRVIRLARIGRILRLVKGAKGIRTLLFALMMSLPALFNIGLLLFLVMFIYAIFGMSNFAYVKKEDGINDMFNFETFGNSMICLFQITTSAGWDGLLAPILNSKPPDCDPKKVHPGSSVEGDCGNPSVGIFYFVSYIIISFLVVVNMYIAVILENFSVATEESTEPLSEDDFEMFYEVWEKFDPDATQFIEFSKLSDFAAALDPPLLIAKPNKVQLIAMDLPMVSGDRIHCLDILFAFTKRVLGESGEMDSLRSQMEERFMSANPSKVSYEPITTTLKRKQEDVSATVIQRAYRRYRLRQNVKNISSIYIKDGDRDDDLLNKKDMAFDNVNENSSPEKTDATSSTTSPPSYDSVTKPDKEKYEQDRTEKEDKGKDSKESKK", "assay_type": "cell-based"}, "[3]": {"biological_target": "hNav1.5 (Homo sapiens, UniProt Q14524)", "sequence (Q14524 whole entry, looked up)": "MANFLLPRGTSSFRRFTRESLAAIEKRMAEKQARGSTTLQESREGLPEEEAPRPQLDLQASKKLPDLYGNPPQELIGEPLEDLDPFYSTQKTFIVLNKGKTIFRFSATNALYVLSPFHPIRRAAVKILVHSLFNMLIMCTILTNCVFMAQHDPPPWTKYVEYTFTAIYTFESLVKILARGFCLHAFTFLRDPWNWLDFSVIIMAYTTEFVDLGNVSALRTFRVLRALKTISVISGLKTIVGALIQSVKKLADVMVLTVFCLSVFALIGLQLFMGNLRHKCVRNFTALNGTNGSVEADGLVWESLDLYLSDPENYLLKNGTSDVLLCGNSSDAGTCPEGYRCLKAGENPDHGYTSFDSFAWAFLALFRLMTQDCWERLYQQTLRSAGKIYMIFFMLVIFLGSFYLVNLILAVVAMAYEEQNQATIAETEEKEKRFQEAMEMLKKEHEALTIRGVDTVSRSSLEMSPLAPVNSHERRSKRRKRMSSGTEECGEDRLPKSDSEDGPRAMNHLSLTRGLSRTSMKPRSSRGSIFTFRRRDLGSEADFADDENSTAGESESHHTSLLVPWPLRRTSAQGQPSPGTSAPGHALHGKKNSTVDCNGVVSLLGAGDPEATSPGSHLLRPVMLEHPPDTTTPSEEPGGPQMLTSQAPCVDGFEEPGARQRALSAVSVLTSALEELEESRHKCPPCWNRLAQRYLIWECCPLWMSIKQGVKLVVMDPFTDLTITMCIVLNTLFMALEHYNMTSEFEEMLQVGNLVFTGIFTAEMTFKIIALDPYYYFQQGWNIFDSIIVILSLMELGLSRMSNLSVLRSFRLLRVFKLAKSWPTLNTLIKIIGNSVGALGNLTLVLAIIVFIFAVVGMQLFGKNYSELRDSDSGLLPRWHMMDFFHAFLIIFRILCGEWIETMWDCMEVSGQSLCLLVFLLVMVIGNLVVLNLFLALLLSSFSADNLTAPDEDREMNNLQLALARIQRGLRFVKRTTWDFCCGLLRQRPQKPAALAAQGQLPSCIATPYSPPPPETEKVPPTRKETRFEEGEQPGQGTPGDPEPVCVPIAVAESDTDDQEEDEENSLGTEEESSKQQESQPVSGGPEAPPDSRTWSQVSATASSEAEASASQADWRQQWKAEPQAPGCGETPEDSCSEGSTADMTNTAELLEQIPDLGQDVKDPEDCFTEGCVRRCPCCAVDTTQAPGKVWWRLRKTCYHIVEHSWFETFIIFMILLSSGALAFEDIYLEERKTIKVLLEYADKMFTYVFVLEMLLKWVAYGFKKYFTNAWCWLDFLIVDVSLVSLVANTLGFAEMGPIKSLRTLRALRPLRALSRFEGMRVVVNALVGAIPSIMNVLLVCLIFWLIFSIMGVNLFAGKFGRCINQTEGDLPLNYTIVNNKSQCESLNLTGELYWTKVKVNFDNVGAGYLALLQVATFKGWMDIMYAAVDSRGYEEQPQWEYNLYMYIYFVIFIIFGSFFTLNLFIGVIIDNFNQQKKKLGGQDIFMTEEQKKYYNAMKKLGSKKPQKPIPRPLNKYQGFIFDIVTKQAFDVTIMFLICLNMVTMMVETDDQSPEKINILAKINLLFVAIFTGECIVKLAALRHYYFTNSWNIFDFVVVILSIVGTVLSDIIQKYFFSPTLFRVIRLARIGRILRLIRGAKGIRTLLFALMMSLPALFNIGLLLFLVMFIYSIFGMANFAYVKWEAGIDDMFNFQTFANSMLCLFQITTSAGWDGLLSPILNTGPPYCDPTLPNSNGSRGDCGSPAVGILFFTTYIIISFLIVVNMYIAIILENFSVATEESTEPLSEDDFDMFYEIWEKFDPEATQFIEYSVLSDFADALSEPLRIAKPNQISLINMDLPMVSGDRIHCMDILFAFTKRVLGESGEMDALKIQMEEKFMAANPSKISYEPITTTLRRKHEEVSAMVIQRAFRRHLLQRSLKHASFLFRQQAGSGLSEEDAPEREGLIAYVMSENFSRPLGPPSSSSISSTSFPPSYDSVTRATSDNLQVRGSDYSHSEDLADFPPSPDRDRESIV"}, "[4]": {"conditions": "Table 23, IonWorks Quattro, use, […], read-out: IWQ Use Nav1.5"}, "[5]": {"conditions": "IonWorks Quattro, Use, read-out: IWQ Use Nav1.5"}}, "note": "Like-named read-outs stand apart in the source and are kept apart here. Positions of bridges follow the written chain, without caps; N, C: chain ends. Residues, ends and D or L forms follow the SMILES beside them.", "data": [{"smiles": "CC[C@H](C)[C@@H]1NC(=O)[C@@H]2CSSC[C@@H]3NC(=O)[C@H](C(C)C)NC(=O)[C@H](CC(C)C)NC(=O)[C@H](CC(N)=O)NC(=O)[C@@H]4CCCN4C(=O)[C@H](CCCNC(=N)N)NC(=O)[C@H](CSSC[C@H](NC(=O)[C@@H](N)CC(=O)O)C(=O)N[C@@H](CC(C)C)C(=O)NCC(=O)N[C@@H](Cc4ccccc4)C(=O)N[C@@H](CCSC)C(=O)N[C@@H](CCCNC(=N)N)C(=O)N[C@@H](CCCCN)C(=O)N2)NC(=O)[C@H](CSSC[C@@H](C(=O)N[C@@H](CCCCN)C(=O)N[C@@H](Cc2ccc(O)cc2)C(=O)N[C@H](C(=O)N[C@@H](Cc2ccccc2)C(N)=O)C(C)C)NC(=O)[C@H](Cc2c[nH]c4ccccc24)NC(=O)[C@H](CCCCN)NC(=O)[C@H](C)NC(=O)[C@H]([C@@H](C)O)NC(=O)[C@H](CCCNC(=N)N)NC(=O)[C@H](CO)NC3=O)NC(=O)[C@H](CCCCN)NC(=O)[C@H](CC(=O)O)NC(=O)[C@H](CC(N)=O)NC(=O)[C@H](CC(=O)O)NC(=O)[C@@H]2CCCN2C1=O", "note": "[compound 11] (H-DCLGFMRKCIPDNDKCCRPNLVCSRTAKWCKYVF-NH2; disulfide 2-17, 9-23, 16-30)", "values": [{"measurement": "IC50", "setting": "[1]; Table 23, use, […]", "result": 1150, "unit": "nM"}, {"measurement": "IC50", "setting": "[2]", "result": 950, "unit": "nM"}, {"measurement": "IC50", "setting": "[3]; [4]", "result": 14.7, "unit": "µM"}]}, {"smiles": "CC[C@H](C)[C@@H]1NC(=O)[C@@H]2CSSC[C@@H]3NC(=O)[C@H](C(C)C)NC(=O)[C@H](CC(C)C)NC(=O)[C@H](CC(N)=O)NC(=O)[C@@H]4CCCN4C(=O)[C@H](CCCNC(=N)N)NC(=O)[C@H](CSSC[C@H](NC(=O)[C@@H](N)CC(=O)O)C(=O)N[C@@H](CC(C)C)C(=O)NCC(=O)N[C@@H](Cc4ccccc4)C(=O)N[C@@H](CCSC)C(=O)N[C@@H](CCCNC(=N)N)C(=O)N[C@@H](CCCCN)C(=O)N2)NC(=O)[C@H](CSSC[C@@H](C(=O)N[C@@H](CCCCN)C(=O)N[C@@H](Cc2ccc(O)cc2)C(=O)N[C@H](C(=O)N[C@@H](Cc2ccccc2)C(N)=O)C(C)C)NC(=O)[C@H](Cc2c[nH]c4ccccc24)NC(=O)[C@H](C)NC(=O)[C@H](Cc2cnc[nH]2)NC(=O)[C@H]([C@@H](C)O)NC(=O)[C@H](CCCNC(=N)N)NC(=O)[C@H](CO)NC3=O)NC(=O)[C@H](CCCCN)NC(=O)[C@H](CC(=O)O)NC(=O)[C@H](CC(N)=O)NC(=O)[C@H](CC(=O)O)NC(=O)[C@@H]2CCCN2C1=O", "note": "[compound 12] (H-DCLGFMRKCIPDNDKCCRPNLVCSRTHAWCKYVF-NH2; disulfide 2-17, 9-23, 16-30)", "values": [{"measurement": "IC50", "setting": "[1]; Table 23, use, […]", "result": 660, "unit": "nM"}, {"measurement": "IC50", "setting": "[2]", "result": 360, "unit": "nM"}, {"measurement": "IC50", "setting": "[3]; [4]", "result": 17.3, "unit": "µM"}]}, {"smiles": "CC[C@H](C)[C@@H]1NC(=O)[C@@H]2CSSC[C@@H]3NC(=O)[C@H](C(C)C)NC(=O)[C@H](CC(C)C)NC(=O)[C@H](CC(N)=O)NC(=O)[C@@H]4CCCN4C(=O)[C@H](CCCNC(=N)N)NC(=O)[C@H](CSSC[C@H](NC(=O)[C@@H](N)CC(=O)O)C(=O)N[C@@H](CC(C)C)C(=O)NCC(=O)N[C@@H](Cc4ccccc4)C(=O)N[C@@H](CCSC)C(=O)N[C@@H](CCCNC(=N)N)C(=O)N[C@@H](CCCCN)C(=O)N2)NC(=O)[C@H](CSSC[C@@H](C(=O)N[C@@H](C)C(=O)N[C@@H](Cc2ccc(O)cc2)C(=O)N[C@H](C(=O)N[C@@H](Cc2ccccc2)C(N)=O)C(C)C)NC(=O)[C@H](Cc2c[nH]c4ccccc24)NC(=O)[C@H](CCCCN)NC(=O)[C@H](Cc2cnc[nH]2)NC(=O)[C@H]([C@@H](C)O)NC(=O)[C@H](CCCNC(=N)N)NC(=O)[C@H](CO)NC3=O)NC(=O)[C@H](CCCCN)NC(=O)[C@H](CC(=O)O)NC(=O)[C@H](CC(N)=O)NC(=O)[C@H](CC(=O)O)NC(=O)[C@@H]2CCCN2C1=O", "note": "[compound 13] (H-DCLGFMRKCIPDNDKCCRPNLVCSRTHKWCAYVF-NH2; disulfide 2-17, 9-23, 16-30)", "values": [{"measurement": "IC50", "setting": "[1]; Table 25, use, […]", "result": 7390, "unit": "nM"}, {"measurement": "IC50", "setting": "[2]", "result": 7940, "unit": "nM"}, {"measurement": "IC50", "setting": "[3]; IWQ Use Nav1.5 (μM)", "result": 14.5, "unit": "µM"}]}, {"smiles": "CC[C@H](C)[C@@H]1NC(=O)[C@@H]2CSSC[C@@H]3NC(=O)[C@H](C(C)C)NC(=O)[C@H](CC(C)C)NC(=O)[C@H](CC(N)=O)NC(=O)[C@@H]4CCCN4C(=O)[C@H](CCCNC(=N)N)NC(=O)[C@H](CSSC[C@H](NC(=O)[C@@H](N)CC(=O)O)C(=O)N[C@@H](CC(C)C)C(=O)NCC(=O)N[C@@H](Cc4ccccc4)C(=O)N[C@@H](CCSC)C(=O)N[C@@H](CCCNC(=N)N)C(=O)N[C@@H](CCCCN)C(=O)N2)NC(=O)[C@H](CSSC[C@@H](C(=O)N[C@@H](CCCCN)C(=O)N[C@@H](Cc2ccc(O)cc2)C(=O)N[C@@H](C)C(=O)N[C@@H](Cc2ccccc2)C(N)=O)NC(=O)[C@H](Cc2c[nH]c4ccccc24)NC(=O)[C@H](CCCCN)NC(=O)[C@H](Cc2cnc[nH]2)NC(=O)[C@H]([C@@H](C)O)NC(=O)[C@H](CCCNC(=N)N)NC(=O)[C@H](CO)NC3=O)NC(=O)[C@H](CCCCN)NC(=O)[C@H](CC(=O)O)NC(=O)[C@H](CC(N)=O)NC(=O)[C@H](CC(=O)O)NC(=O)[C@@H]2CCCN2C1=O", "note": "[compound 15] (H-DCLGFMRKCIPDNDKCCRPNLVCSRTHKWCKYAF-NH2; disulfide 2-17, 9-23, 16-30)", "values": [{"measurement": "IC50", "setting": "[1]; Table 26, use, […]", "result": 350, "unit": "nM"}, {"measurement": "IC50", "setting": "[2]; Table 26, IonWorks Quattro, use, […], read-out: IWQ Use Nav1.7", "result": 330, "unit": "nM"}, {"measurement": "IC50", "setting": "[3]; Table 26, IonWorks Quattro, use, […], read-out: IWQ Use Nav1.5", "result": 18.6, "unit": "µM"}]}, {"smiles": "CC[C@H](C)[C@@H]1NC(=O)[C@@H]2CSSC[C@@H]3NC(=O)[C@H](C(C)C)NC(=O)[C@H](CC(C)C)NC(=O)[C@H](CC(N)=O)NC(=O)[C@@H]4CCCN4C(=O)[C@H](CCCNC(=N)N)NC(=O)[C@H](CSSC[C@H](NC(=O)[C@@H](N)CC(=O)O)C(=O)N[C@@H](CC(C)C)C(=O)NCC(=O)N[C@@H](Cc4ccccc4)C(=O)N[C@@H](CCSC)C(=O)N[C@@H](CCCNC(=N)N)C(=O)N[C@@H](CCCCN)C(=O)N2)NC(=O)[C@H](CSSC[C@@H](C(=O)N[C@@H](CCCCN)C(=O)N[C@@H](Cc2ccc(O)cc2)C(=O)N[C@H](C(=O)N[C@@H](Cc2ccccc2)C(=O)N[C@@H](C)C(N)=O)C(C)C)NC(=O)[C@H](Cc2c[nH]c4ccccc24)NC(=O)[C@H](CCCCN)NC(=O)[C@H](Cc2c[nH]cn2)NC(=O)[C@H]([C@@H](C)O)NC(=O)[C@H](CCCNC(=N)N)NC(=O)[C@H](CO)NC3=O)NC(=O)[C@H](CCCCN)NC(=O)[C@H](CC(=O)O)NC(=O)[C@H](CC(N)=O)NC(=O)[C@H](CC(=O)O)NC(=O)[C@@H]2CCCN2C1=O", "note": "[compound 16]", "values": [{"measurement": "IC50", "setting": "[1]; use-dependent, […]", "result": 260, "unit": "nM"}, {"measurement": "IC50", "setting": "[2]; IonWorks Quattro, use-dependent, […], read-out: IWQ Use Nav1.7 (μm)", "result": 410, "unit": "nM"}, {"measurement": "IC50", "setting": "[3]; IonWorks Quattro, use-dependent, […], read-out: IWQ Use Nav1.5", "result": 14.2, "unit": "µM"}]}, {"smiles": "CC[C@H](C)[C@@H]1NC(=O)[C@@H]2CSSC[C@@H]3NC(=O)[C@H](C(C)C)NC(=O)[C@H](CC(C)C)NC(=O)[C@H](CC(N)=O)NC(=O)[C@@H]4CCCN4C(=O)[C@H](CCCNC(=N)N)NC(=O)[C@H](CSSC[C@H](NC(=O)[C@@H](N)CC(=O)O)C(=O)N[C@@H](CC(C)C)C(=O)NCC(=O)N[C@@H](Cc4ccccc4)C(=O)N[C@@H](CCSC)C(=O)N[C@@H](CCCNC(=N)N)C(=O)N[C@@H](CCCCN)C(=O)N2)NC(=O)[C@H](CSSC[C@@H](C(=O)N[C@@H](CCCCN)C(=O)N[C@@H](Cc2ccc(O)cc2)C(=O)N[C@H](C(=O)N[C@@H](Cc2ccccc2)C(N)=O)C(C)C)NC(=O)[C@H](Cc2c[nH]c4ccccc24)NC(=O)[C@H](CCCCN)NC(=O)[C@H](Cc2cnc[nH]2)NC(=O)[C@H]([C@@H](C)O)NC(=O)[C@H](CCCNC(=N)N)NC(=O)[C@H](CO)NC3=O)NC(=O)[C@H](CCCCN)NC(=O)[C@H](CC(=O)O)NC(=O)[C@H](CC(N)=O)NC(=O)[C@H](CCC(=O)O)NC(=O)[C@@H]2CCCN2C1=O", "note": "[compound 26] (H-DCLGFMRKCIPENDKCCRPNLVCSRTHKWCKYVF-NH2; disulfide 2-17, 9-23, 16-30)", "values": [{"measurement": "IC50", "setting": "[1]; Use", "result": 190, "unit": "nM"}, {"measurement": "IC50", "setting": "[2]", "result": 260, "unit": "nM"}, {"measurement": "IC50", "setting": "[3]; [5]", "result": 6.45, "unit": "µM"}]}, {"smiles": "CC[C@H](C)[C@@H]1NC(=O)[C@@H]2CSSC[C@@H]3NC(=O)[C@H](C(C)C)NC(=O)[C@H](CC(C)C)NC(=O)[C@H](CC(N)=O)NC(=O)[C@@H]4CCCN4C(=O)[C@H](CCCNC(=N)N)NC(=O)[C@H](CSSC[C@H](NC(=O)[C@@H](N)CC(=O)O)C(=O)N[C@@H](CC(C)C)C(=O)NCC(=O)N[C@@H](Cc4ccccc4)C(=O)N[C@@H](CCSC)C(=O)N[C@@H](CCCNC(=N)N)C(=O)N[C@@H](CCCCN)C(=O)N2)NC(=O)[C@H](CSSC[C@@H](C(=O)N[C@@H](CCCCN)C(=O)N[C@@H](Cc2ccc(O)cc2)C(=O)N[C@H](C(=O)N[C@@H](Cc2ccccc2)C(N)=O)C(C)C)NC(=O)[C@H](Cc2c[nH]c4ccccc24)NC(=O)[C@H](CCCCN)NC(=O)[C@H](Cc2cnc[nH]2)NC(=O)[C@H]([C@@H](C)O)NC(=O)[C@H](CCCNC(=N)N)NC(=O)[C@H](CO)NC3=O)NC(=O)[C@H](CCCCN)NC(=O)[C@H](CC(=O)O)NC(=O)[C@H](CCC(=O)O)NC(=O)[C@H](CC(=O)O)NC(=O)[C@@H]2CCCN2C1=O", "note": "[compound 27] (H-DCLGFMRKCIPDEDKCCRPNLVCSRTHKWCKYVF-NH2; disulfide 2-17, 9-23, 16-30)", "values": [{"measurement": "IC50", "setting": "[1]; Use", "result": 220, "unit": "nM"}, {"measurement": "IC50", "setting": "[2]; IonWorks Quattro, Use, read-out: IWQ Use Nav1.7", "result": 260, "unit": "nM"}, {"measurement": "IC50", "setting": "[3]; [5]", "result": 9.38, "unit": "µM"}]}]}
